Consider two compounds from ChEMBL document CHEMBL5053560, “Nanoparticular Inhibitors of Flavivirus Proteases from Zika, West Nile and Dengue Virus Are Cell-Permeable Antivirals” (ACS Med Chem Lett, 2021).

The target in assay [1] is T1, Genome polyprotein (West Nile virus, UniProt P06935). The assay is described as follows: Competitive inhibition of C-terminal His-tagged WNV NSB2 (52 to 96 amino acids)-NS3 (1 to 184 amino acids) protease expressed in Escherichia coli BL21(DE3) using Boc-GRK-AMC as substrate measured by flourescence based plate reader assay.
Assay [2] deals with T2, Nonstructural protein 3 (Zika virus, UniProt A0A024AXB9). The assay is described as follows: Inhibition of C-terminal His-tagged ZIKV NSB2 (52 to 96 amino acids)-NS3 (1 to 184 amino acids) protease expressed in Escherichia coli BL21(DE3) preincubated for 10 mins followed by addition of Boc-GKR-AMC substrate and measured by flourescence based plate reader assay.
The target of assay [3] is T3, Genome polyprotein (dengue virus type 2, UniProt P29990). As to the kind of experiment: Competitive inhibition of recombinant N-terminal His-tagged DENV NS2B-NS3 protease expressed in Escherichia coli BL21(DE3) using Boc-GRR-AMC as substrate measured by flourescence based plate reader assay.
The target of assay [4] is T3, Genome polyprotein. As to the kind of experiment: Inhibition of recombinant N-terminal His-tagged DENV NS2B-NS3 protease expressed in Escherichia coli BL21(DE3) using Boc-GRR-AMC as substrate measured by flourescence based plate reader assay.
Assay [5] addresses T2, Nonstructural protein 3. As to the kind of experiment: Competitive inhibition of C-terminal His-tagged ZIKV NSB2 (52 to 96 amino acids)-NS3 (1 to 184 amino acids) protease expressed in Escherichia coli BL21(DE3) preincubated for 10 mins followed by addition of Boc-GKR-AMC substrate and measured by flourescence based plate reader assay.
Assay [6] deals with T1, Genome polyprotein. As to the kind of experiment: Inhibition of C-terminal His-tagged WNV NSB2 (52 to 96 amino acids)-NS3 (1 to 184 amino acids) protease expressed in Escherichia coli BL21(DE3) using Boc-GRK-AMC as substrate measured by flourescence based plate reader assay.
The test system of a further assay is West Nile virus. The assay is described as follows: Antiviral activity against West Nile virus infected in human Huh-7 cells assessed as inhibition of viral replication at 12.5 uM measured after 48 hrs by plaque assay relative to control. It is filed as functional.
Another assay has as its system Zika virus. As to the kind of experiment: Antiviral activity against Zika virus infected in human Huh-7 cells assessed as inhibition of viral replication at 12.5 uM measured after 48 hrs by Renilla reporter based luciferase assay relative to control. It is filed as functional.

As usually defined, the Ki is a dissociation constant, usually derived from enzyme kinetics or from competition with a known ligand. Usually IC50 stands for the concentration that gives 50% inhibition. A word on the inhibition: it is the drop in the measured response relative to a control, in per cent.

T1 sequence (P06935 1371-1501 limits assumed): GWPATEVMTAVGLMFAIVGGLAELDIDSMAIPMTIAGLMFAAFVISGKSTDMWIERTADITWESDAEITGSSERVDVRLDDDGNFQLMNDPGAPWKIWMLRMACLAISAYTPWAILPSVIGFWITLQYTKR
T1 sequence (P06935 1502-2120 limits assumed): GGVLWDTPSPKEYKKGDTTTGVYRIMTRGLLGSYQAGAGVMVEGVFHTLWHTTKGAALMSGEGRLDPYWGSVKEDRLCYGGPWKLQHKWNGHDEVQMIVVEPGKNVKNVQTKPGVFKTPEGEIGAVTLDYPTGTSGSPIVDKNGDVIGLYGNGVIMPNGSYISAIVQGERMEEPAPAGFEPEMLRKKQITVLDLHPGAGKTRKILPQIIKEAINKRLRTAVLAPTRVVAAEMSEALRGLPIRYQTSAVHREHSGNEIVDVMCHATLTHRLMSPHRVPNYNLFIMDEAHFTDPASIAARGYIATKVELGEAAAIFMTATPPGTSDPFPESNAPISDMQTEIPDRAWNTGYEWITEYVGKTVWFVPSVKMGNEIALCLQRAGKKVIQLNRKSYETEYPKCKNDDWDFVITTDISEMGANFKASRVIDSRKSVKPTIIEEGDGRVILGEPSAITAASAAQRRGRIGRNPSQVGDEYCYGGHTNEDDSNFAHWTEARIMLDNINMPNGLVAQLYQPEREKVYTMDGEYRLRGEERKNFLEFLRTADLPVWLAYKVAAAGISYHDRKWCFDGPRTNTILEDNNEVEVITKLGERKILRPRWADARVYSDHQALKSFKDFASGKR
T3 sequence (P29990 1346-1475 limits assumed): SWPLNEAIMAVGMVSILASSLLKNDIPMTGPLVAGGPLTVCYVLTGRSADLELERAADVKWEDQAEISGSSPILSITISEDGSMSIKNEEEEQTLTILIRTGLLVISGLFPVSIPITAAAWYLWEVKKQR
T3 sequence (P29990 1476-2093 limits assumed): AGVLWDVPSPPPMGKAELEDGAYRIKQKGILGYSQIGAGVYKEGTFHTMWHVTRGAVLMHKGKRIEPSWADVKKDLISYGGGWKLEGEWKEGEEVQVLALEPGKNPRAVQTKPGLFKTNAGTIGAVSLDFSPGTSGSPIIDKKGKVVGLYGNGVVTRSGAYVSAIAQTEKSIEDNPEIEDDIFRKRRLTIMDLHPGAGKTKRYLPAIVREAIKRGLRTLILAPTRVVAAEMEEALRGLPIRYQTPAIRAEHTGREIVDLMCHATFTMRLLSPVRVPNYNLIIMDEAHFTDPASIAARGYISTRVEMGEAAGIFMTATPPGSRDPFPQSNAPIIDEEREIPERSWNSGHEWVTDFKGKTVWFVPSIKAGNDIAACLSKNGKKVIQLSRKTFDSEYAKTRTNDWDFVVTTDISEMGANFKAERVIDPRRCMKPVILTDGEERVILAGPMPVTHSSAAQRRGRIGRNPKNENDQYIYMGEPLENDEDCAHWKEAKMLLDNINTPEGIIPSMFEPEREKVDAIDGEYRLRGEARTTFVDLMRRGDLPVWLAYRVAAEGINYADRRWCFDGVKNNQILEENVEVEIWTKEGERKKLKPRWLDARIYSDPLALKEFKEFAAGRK
T2 sequence (A0A024AXB9 whole entry, the tested form may be a part): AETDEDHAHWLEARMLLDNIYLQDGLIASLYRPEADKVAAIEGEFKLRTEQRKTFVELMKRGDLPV

Consider `N=C(N)N[C@H]1CC[C@H](CNC(=O)[C@H](CCCCN)NC(=O)[C@H](CCCCN)NC(=O)Cc2ccc(OCCCCS)cc2)CC1`, for which the Ki at Genome polyprotein [1] was 343 nM; on Genome polyprotein [3], 12700 nM; at Nonstructural protein 3 [5], 79 nM. The IC50 turned out to be 125 nM at Nonstructural protein 3 [2], 17100 nM at Genome polyprotein [4] and 460 nM at Genome polyprotein [6].

`NC(=O)c1ncn([C@@H]2O[C@H](CO)[C@@H](O)[C@H]2O)n1` [RIBAVIRIN]: the inhibition at 12.5 µM amounted to 90% with West Nile virus and 80% with Zika virus.
